Laboratory results from ChEMBL document CHEMBL1201862, “PubChem BioAssay data set” (2004).
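Dose response: 5 concentrations. Exposure: 48 h. Format: 96-well plates. Endpoint: linear interpolation; highest concentration if not reached. Abbreviation: GI50, concentration required for 50% inhibition of growth.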 The source made the active and inactive calls. Cut-off read from the data, not from the text of the source: active = GI50 up to about 1.1 µM and inactive = higher.

Experiments:
Test in all cases: DTP human tumour cell line panel, 48 h
A498 = system: A498
ACHN = system: ACHN
BT-549 = system: BT-549
CAKI-1 = system: CAKI-1
HCC 2998 = system: HCC 2998
Hs-578T = system: Hs-578T
IGROV-1 = system: IGROV-1
M14 = system: M14
MDA-MB-231 = system: MDA-MB-231
NCI-H226 = system: NCI-H226
NCI-H460 = system: NCI-H460
NCI/ADR-RES = system: NCI/ADR-RES
OVCAR-8 = system: OVCAR-8
PC-3 = system: PC-3
RXF 393 = system: RXF 393
SF-539 = system: SF-539
SK-OV-3 = system: SK-OV-3
SNB-75 = system: SNB-75
SW-620 = system: SW-620
UO-31 = system: UO-31

Structure (SMILES)	GI50 (A498)	GI50 (ACHN)	GI50 (BT-549)	GI50 (CAKI-1)	GI50 (HCC 2998)	GI50 (Hs-578T)	GI50 (IGROV-1)	GI50 (M14)	GI50 (MDA-MB-231)	GI50 (NCI-H226)	GI50 (NCI-H460)	GI50 (NCI/ADR-RES)	GI50 (OVCAR-8)	GI50 (PC-3)	GI50 (RXF 393)	GI50 (SF-539)	GI50 (SK-OV-3)	GI50 (SNB-75)	GI50 (SW-620)	GI50 (UO-31)
O=C(O)CC1(CC(=O)O)Nc2ccccc2SC1=O	> 100 µM (inactive)	> 100 µM (inactive)	> 100 µM (inactive)	> 100 µM (inactive)	> 100 µM (inactive)	> 100 µM (inactive)	> 100 µM (inactive)	> 100 µM (inactive)	> 100 µM (inactive)	> 100 µM (inactive)	> 100 µM (inactive)	> 100 µM (inactive)	> 100 µM (inactive)	> 100 µM (inactive)	> 100 µM (inactive)	0.0904 µM (active)	> 100 µM (inactive)	> 100 µM (inactive)	> 100 µM (inactive)	> 100 µM (inactive)
CC(C)NC(=O)CN1CCN(C2=CC(=O)c3c(O)ccc(O)c3C2=O)CC1	24.2 µM (inactive)	21.2 µM (inactive)	17.7 µM (inactive)	26.2 µM (inactive)	16.7 µM (inactive)	25.9 µM (inactive)	14.8 µM (inactive)	9.33 µM (inactive)	26.3 µM (inactive)	31.4 µM (inactive)	13 µM (inactive)	3.9 µM (inactive)	9.04 µM (inactive)	17.5 µM (inactive)	17.2 µM (inactive)	16.7 µM (inactive)	26.1 µM (inactive)	18.2 µM (inactive)	4.25 µM (inactive)	18.3 µM (inactive)
COc1ccc2nc3cc(Cl)ccc3c(Nc3ccc(O)c(CN4CCN(C)CC4)c3)c2c1	4.51 µM (inactive)	1.64 µM (inactive)	20.3 µM (inactive)	1.92 µM (inactive)	1.19 µM (inactive)	1.89 µM (inactive)	1.71 µM (inactive)	1.99 µM (inactive)	1.52 µM (inactive)	20.5 µM (inactive)	1.72 µM (inactive)	2.08 µM (inactive)	1.79 µM (inactive)	1.67 µM (inactive)	1.69 µM (inactive)	1.79 µM (inactive)	5.79 µM (inactive)	1.62 µM (inactive)	1.99 µM (inactive)	1.9 µM (inactive)
CCN(CC)CCN(C)CCc1ccc(Br)cc1	13.8 µM (inactive)	> 100 µM (inactive)	42.5 µM (inactive)	> 100 µM (inactive)	> 100 µM (inactive)	21.7 µM (inactive)	> 100 µM (inactive)	17.2 µM (inactive)	54.3 µM (inactive)	24.7 µM (inactive)	> 100 µM (inactive)	79.4 µM (inactive)	> 100 µM (inactive)	54 µM (inactive)	38.5 µM (inactive)	30.8 µM (inactive)	> 100 µM (inactive)	46.7 µM (inactive)	54.8 µM (inactive)	83.8 µM (inactive)
O=C1C=C(C2=C(C3=CC(=O)c4ccccc4C3=O)C(=O)c3ccccc3C2=O)C(=O)c2ccccc21	16.9 µM (inactive)	17.9 µM (inactive)	14.6 µM (inactive)	4.7 µM (inactive)	16.9 µM (inactive)	11.5 µM (inactive)	2.15 µM (inactive)	8.87 µM (inactive)	3.07 µM (inactive)	13 µM (inactive)	14.8 µM (inactive)	11.1 µM (inactive)	5.62 µM (inactive)	10.4 µM (inactive)	1.69 µM (inactive)	8.28 µM (inactive)	20.9 µM (inactive)	9.46 µM (inactive)	3.79 µM (inactive)	2.85 µM (inactive)
CC(=O)Nc1cc(Cl)cc(Cl)c1O	> 100 µM (inactive)	> 100 µM (inactive)	> 100 µM (inactive)	> 100 µM (inactive)	> 100 µM (inactive)	> 100 µM (inactive)	> 100 µM (inactive)	> 100 µM (inactive)	> 100 µM (inactive)	> 100 µM (inactive)	> 100 µM (inactive)	> 100 µM (inactive)	> 100 µM (inactive)	> 100 µM (inactive)	> 100 µM (inactive)	> 100 µM (inactive)	> 100 µM (inactive)	97.1 µM (inactive)	> 100 µM (inactive)	> 100 µM (inactive)
CCCCCCCCCCC/C=C(/C(=O)CCCO[Si](C)(C)C(C)(C)C)C(=O)OC	> 100 µM (inactive)	> 100 µM (inactive)	> 100 µM (inactive)	> 100 µM (inactive)	> 100 µM (inactive)	> 100 µM (inactive)	> 100 µM (inactive)	> 100 µM (inactive)	> 100 µM (inactive)	> 100 µM (inactive)	> 100 µM (inactive)	> 100 µM (inactive)	> 100 µM (inactive)	> 100 µM (inactive)	> 100 µM (inactive)	> 100 µM (inactive)	> 100 µM (inactive)	> 100 µM (inactive)	> 100 µM (inactive)	> 100 µM (inactive)
c1ccc(/N=C2/SC(c3ccccc3)(c3ccccc3)c3ccccc32)cc1	> 100 µM (inactive)	> 100 µM (inactive)	> 100 µM (inactive)	> 100 µM (inactive)	> 100 µM (inactive)	> 100 µM (inactive)	> 100 µM (inactive)	> 100 µM (inactive)	> 100 µM (inactive)	> 100 µM (inactive)	> 100 µM (inactive)	> 100 µM (inactive)	> 100 µM (inactive)	> 100 µM (inactive)	> 100 µM (inactive)	> 100 µM (inactive)	> 100 µM (inactive)	> 100 µM (inactive)	> 100 µM (inactive)	> 100 µM (inactive)
N=C(N)SCc1ccc2c(c1)Sc1ccccc1O2	15.6 µM (inactive)	4.47 µM (inactive)	3.62 µM (inactive)	6.46 µM (inactive)	2.35 µM (inactive)	4.56 µM (inactive)	3.34 µM (inactive)	2.16 µM (inactive)	10.3 µM (inactive)	11.2 µM (inactive)	6.79 µM (inactive)	6.65 µM (inactive)	10.6 µM (inactive)	4.74 µM (inactive)	3.61 µM (inactive)	2.07 µM (inactive)	12.9 µM (inactive)	5.65 µM (inactive)	5.85 µM (inactive)	3.37 µM (inactive)
NC(C(=O)O)c1cc(O)no1 (stereo not given)	> 100 µM (inactive)	> 100 µM (inactive)	> 42.5 µM (inactive)	> 100 µM (inactive)	> 100 µM (inactive)	> 100 µM (inactive)	> 100 µM (inactive)	> 100 µM (inactive)	> 100 µM (inactive)	> 100 µM (inactive)	> 100 µM (inactive)	> 100 µM (inactive)	> 100 µM (inactive)	> 100 µM (inactive)	> 100 µM (inactive)	> 100 µM (inactive)	> 100 µM (inactive)	> 100 µM (inactive)	> 100 µM (inactive)	> 100 µM (inactive)
